# pIC50, pKd: −log10 of the molar value. “And” between values parts separate entries of the source, which are not always exact repeats. Identical values can stand only once. Like-named read-outs stand apart in the source and are kept apart here.
# Experiments:
# [1] = target: T1, OEP21 variants (single point mutations, ΔL5) (Pisum sativum, UniProt Q9SM57, R142A); experiment: Fluorescence polarization binding of MANT-ATP to OEP21 variants; parameters: species or system garden pea; conditions: OEP21 variant R142A; for pKd: unit inferred;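 as to all read-outs here: KD obtained by fitting fluorescence polarization data to a one-site binding model, each experiment run in triplicate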
# T1 construct: made in house; host or cells: Escherichia coli BL21(DE3) (described for OEP21)
# [2] = target: T2, OEP21 variants (single point mutations, ΔL5) (Pisum sativum, UniProt Q9SM57, K90A); experiment: as above; parameters: species or system garden pea; conditions: OEP21 variant K90A; for pKd: unit inferred
# T2 construct: made in house; host or cells: Escherichia coli BL21(DE3) (described for OEP21)
# [3] = target: OEP21 variants (single point mutations, ΔL5); experiment: as above; parameters: species or system garden pea; conditions: OEP21 variant dL5; for pKd: unit inferred
# [4] = target: T3, OEP21 variants (single point mutations, ΔL5) (Pisum sativum, UniProt Q9SM57, R157A); experiment: as above; parameters: species or system garden pea; conditions: OEP21 variant R157A; for pKd: unit inferred
# T3 construct: made in house; host or cells: Escherichia coli BL21(DE3) (described for OEP21)
# [5] = target: T4, OEP21 variants (single point mutations, ΔL5) (Pisum sativum, UniProt Q9SM57, R84A); experiment: as above; parameters: species or system garden pea; conditions: OEP21 variant R84A; for pKd: unit inferred
# T4 construct: made in house; host or cells: Escherichia coli BL21(DE3) (described for OEP21)
# [6] = target: T5, OEP21 variants (single point mutations, ΔL5) (Pisum sativum, UniProt Q9SM57, R66A); experiment: as above; parameters: species or system garden pea; conditions: OEP21 variant R66A; for pKd: unit inferred
# T5 construct: made in house; host or cells: Escherichia coli BL21(DE3) (described for OEP21)
# [7] = target: T6, OEP21 variants (single point mutations, ΔL5) (Pisum sativum, UniProt Q9SM57, R174A); experiment: as above; parameters: species or system garden pea; conditions: OEP21 variant R174A; for pKd: unit inferred
# T6 construct: made in house; host or cells: Escherichia coli BL21(DE3) (described for OEP21)
# [8] = target: T7, OEP21 variants (single point mutations, ΔL5) (Pisum sativum, UniProt Q9SM57, K19A); experiment: as above; parameters: species or system garden pea; conditions: OEP21 variant K19A; for pKd: unit inferred
# T7 construct: made in house; host or cells: Escherichia coli BL21(DE3) (described for OEP21)
# [9] = target: T8, OEP21 variants (single point mutations, ΔL5) (Pisum sativum, UniProt Q9SM57, C109A); experiment: as above; parameters: species or system garden pea; conditions: OEP21 variant C109A; for pKd: unit inferred
# T8 construct: made in house; host or cells: Escherichia coli BL21(DE3) (described for OEP21)
# [10] = target: T9, OEP21 variants (single point mutations, ΔL5) (Pisum sativum, UniProt Q9SM57, R33A); experiment: as above; parameters: species or system garden pea; conditions: OEP21 variant R33A; for pKd: unit inferred
# T9 construct: made in house; host or cells: Escherichia coli BL21(DE3) (described for OEP21)
# [11] = target: T10, OEP21 variants (single point mutations, ΔL5) (Pisum sativum, UniProt Q9SM57, N164R/R66A); experiment: as above; parameters: species or system garden pea; conditions: OEP21 variant R66A/N164R; for pKd: unit inferred
# T10 construct: made in house; host or cells: Escherichia coli BL21(DE3) (described for OEP21)
# [12] = target: T11, OEP21 variants (single point mutations, ΔL5) (Pisum sativum, UniProt Q9SM57, R51A); experiment: as above; parameters: species or system garden pea; conditions: OEP21 variant R51A, unit inferred
# T11 construct: made in house; host or cells: Escherichia coli BL21(DE3) (described for OEP21)
# [13] = target: T12, OEP21 variants (single point mutations, ΔL5) (Pisum sativum, UniProt Q9SM57, K104A); experiment: as above; parameters: species or system garden pea; conditions: OEP21 variant K104A; for pKd: unit inferred
# T12 construct: made in house; host or cells: Escherichia coli BL21(DE3) (described for OEP21)
# OEP21 wt [14] = target: T13, OEP21 wt (Pisum sativum, UniProt Q9SM57); experiment: FP competition with preformed MANT-ATP/OEP21-WT complex; format: binding, garden pea
# T13 construct: made in house
# Experimental: (§1) FP assays were performed on a spectrofluorometer FP-8300 (Jasco) equipped with a water bath cooling system MCM-100 (Jasco). […] A buffer containing no EDTA was used when MgCl2 was present. […] KD values were derived by fitting the data to a one-site binding model. […] All FP experiments were performed as triplicates.
# OEP21 wt [15] = target: T13, OEP21 wt; experiment: SEC metabolite translocation assay with OEP21 WT proteoliposomes;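 as to all read-outs here: control is liposomes reconstituted without protein, prepared alongside. Molecule content inside liposomes measured after Triton X-100 disruption. PD10 SEC runs done with or without ATP and/or MgCl2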; format: biochemical, garden pea; conditions: for Relative content (% of mean Control): Fig. 4f, WT proteoliposomes, molecules of increasing molecular weight
# OEP21ΔL5 = target: T14, OEP21ΔL5 (Pisum sativum, UniProt Q9SM57, DEL70-80); experiment: FP competition with preformed MANT-ATP/OEP21ΔL5 complex; format: binding, garden pea
# T14 construct: made in house; host or cells: Escherichia coli BL21(DE3) (described for OEP21)
# Experimental: as §1
# OEP21 = OEP21 (Pisum sativum, UniProt Q9SM57); experiment: Trypsin cleavage of recombinant OEP21 in liposomes; parameters: made in house; species or system garden pea; conditions: 10 µM OEP21 in liposomes; 5 mM metabolite
# Experimental: Sample aliquots were quenched by addition of 1 mM PMSF at the indicated time points and were analyzed by SDS–PAGE.
# [16] = individual determinations, read-out: KD1-KD3
compound,measurement,setting,value
2′-(or-3′)-O-(N-methylanthraniloyl) adenosine 5′-triphosphate [Mant-ATP],pKd,[1]; [16],6.57 and 6.48
same,rel KD1-KD3,[1]; relative to mean KD of wt,1.484 and 1.819 and 1.467
same,pKd,[1]; read-out: mean KD,6.54
same,pKd,[2]; [16],6.53 and 6.57 and 6.61
same,rel KD1-KD3,[2]; relative to mean KD of wt,1.61 and 1.489 and 1.357
same,pKd,[2]; read-out: mean KD,6.57
same,pKd,[3]; [16],6.67 and 6.69 and 6.53
same,rel KD1-KD3,[3]; relative to mean KD of wt,1.176 and 1.121 and 1.632
same,pKd,[3]; read-out: mean KD,6.62
same,pKd,[4]; [16],6.61 and 6.59 and 6.47
same,rel KD1-KD3,[4]; relative to mean KD of wt,1.363 and 1.418 and 1.841
same,pKd,[4]; read-out: mean KD,6.55
same,pKd,[5]; [16],6.58 and 6.60 and 6.46
same,rel KD1-KD3,[5]; relative to mean KD of wt,1.451 and 1.368 and 1.923
same,pKd,[5]; read-out: mean KD,6.54
same,pKd,[6]; [16],6.67 and 6.71 and 6.72
same,rel KD1-KD3,[6]; relative to mean KD of wt,1.176 and 1.071 and 1.044
same,pKd,[6]; read-out: mean KD,6.70
same,pKd,[7]; [16],6.37 and 6.52 and 6.53
same,rel KD1-KD3,[7]; relative to mean KD of wt,2.357 and 1.648 and 1.632
same,pKd,[7]; read-out: mean KD,6.47
same,pKd,[8]; [16],6.66 and 6.59 and 6.57
same,rel KD1-KD3,[8]; relative to mean KD of wt,1.214 and 1.423 and 1.467
same,pKd,[8]; read-out: mean KD,6.60
same,pKd,[9]; [16],6.72 and 6.66 and 6.67
same,rel KD1-KD3,[9]; relative to mean KD of wt,1.044 and 1.209 and 1.17
same,pKd,[9]; read-out: mean KD,6.68
same,pKd,[10]; [16],6.85 and 6.90
same,rel KD1-KD3,[10]; relative to mean KD of wt,0.7802 and 0.6868 and 0.6923
same,pKd,[10]; read-out: mean KD,6.88
same,pKd,[11]; [16],6.76 and 6.74 and 6.68
same,rel KD1-KD3,[11]; relative to mean KD of wt,1.011 and 1.159
same,pKd,[11]; read-out: mean KD,6.72
same,pKd,[12]; [16],6.85 and 7.00 and 6.69
same,pKd,[12]; read-out: mean KD,6.82
same,pKd,[13]; [16],6.68 and 6.53 and 6.69
same,rel KD1-KD3,[13]; relative to mean KD of wt,1.148 and 1.632 and 1.115
same,pKd,[13]; read-out: mean KD,6.63
"O=C[C@H](O)COP(=O)(O)O [GAP, D-glyceraldehyde-3-phosphate]",pIC50,"OEP21 wt [14]; IC50 (dissociation of MANT-ATP), OEP21-WT, 1 µM MANT-ATP, 1 µM protein",~2.00
same,pIC50,"OEP21 wt [14]; IC50, wt, individual determinations",1.96 and 1.97
same,pIC50,"OEP21 wt [14]; mean IC50, wt",1.96
same,Relative GAP content (% of mean Control),"OEP21 wt [15]; ED Fig. 10a, WT 0.05uM, Mean",95.6446 % of mean Control
same,Relative GAP content (% of mean Control),"OEP21 wt [15]; ED Fig. 10a, WT 0.5uM, Mean",62.4352 % of mean Control
same,Relative GAP content (% of mean Control),"OEP21 wt [15]; ED Fig. 10a, WT 5uM, Mean",38.701 % of mean Control
same,Relative GAP content (% of mean Control),"OEP21 wt [15]; ED Fig. 10b, +ATP (2 mM per legend), OEP21 0.05uM, Mean",91.3817 % of mean Control
same,Relative GAP content (% of mean Control),"OEP21 wt [15]; ED Fig. 10b, +ATP (2 mM per legend), OEP21 0.5uM, Mean",64.3295 % of mean Control
same,Relative GAP content (% of mean Control),"OEP21 wt [15]; ED Fig. 10b, +ATP (2 mM per legend), OEP21 5uM, Mean",54.5372 % of mean Control
same,Relative GAP content (% of mean Control),"OEP21 wt [15]; ED Fig. 10c, WT, 0.05M NaCl, Mean",38.1976 % of mean Control
same,Relative GAP content (% of mean Control),"OEP21 wt [15]; ED Fig. 10c, WT, 1M NaCl, Mean",59.8192 % of mean Control
same,Relative GAP content (% of mean Control),"OEP21 wt [15]; ED Fig. 10c, WT, […] NaCl, Mean",46.186 % of mean Control
same,Relative content (% of mean Control),OEP21 wt [15]; Mean,48.3557 % of mean Control
same,Relative content (% of mean Control),OEP21 wt [15]; single replicates,46.601 % of mean Control and 48.0754 % of mean Control and 50.3906 % of mean Control
same,Relative GAP content (% of mean Control),"OEP21 wt [15]; Fig. 4d, WT, 5mM ATP, Mean",40.9262 % of mean Control
same,Relative GAP content (% of mean Control),"OEP21 wt [15]; Fig. 4d, WT, 10mM MgCl2+5mM ATP, Mean",54.2808 % of mean Control
same,Relative GAP content (% of mean Control),"OEP21 wt [15]; Fig. 4d, WT, 10mM MgCl2, Mean",63.8331 % of mean Control
same,passage through the OEP21 channel (in words),"OEP21 wt [15]; proteoliposomes, SEC, deadtime ~4 min",passed through the channel
same,pIC50,"OEP21ΔL5; IC50 (dissociation of MANT-ATP), OEP21ΔL5, 1 µM MANT-ATP, 1 µM protein",~1.59
same,pIC50,"OEP21ΔL5; dL5, individual determinations, read-out: IC50",1.51 and 1.69
same,pIC50,"OEP21ΔL5; dL5, read-out: mean IC50",1.59
same,effect on trypsin digestion of L5 (in words),OEP21,slightly protected L5 from proteolytic digestion

# From publication PMC10279527, “Structural basis of metabolite transport by the chloroplast outer envelope channel OEP21” (Nature Structural & Molecular Biology, 2023)
